# Data taken from patent US8158670B2 (priority 1996, dated 2012).
# “Also recorded” adds a separate entry of the source.
# Legend:
# [1] = test system: target (BO54 and M14) and non-target (HT29) cells; format: cell-based
# [2] = test system: Vascular smooth muscle (BO54) cells; format: cell-based, baboon
# [3] = test system: vascular smooth muscle cells of balloon-traumatized arteries; format: in vivo, pig; details: pig, in vivo
# [4] = test system: vascular smooth muscle cells; experiment: In vitro DNA (3H-thymidine) and protein (3H-leucine) synthesis inhibition; format: cell-based; details: 24 hour assays, 5% FBS
# Procedure: The ability of various therapeutic agents to inhibit DNA synthesis and protein synthesis in vascular smooth muscle cells was tested. ^3H-leucine and ^3H-thymidine uptake and cytotoxicity assays were conducted in accordance with the following protocols.
# 5 minute exposure: ^3H-leucine uptake: Vascular smooth muscle cells at 40,000 cells/ml were seeded in sterile 24 well plates at 1 ml/well. The plates were incubated overnight at 37° C., 5% CO2, 95% air in a humidified atmosphere (saturation). Log dilutions of the therapeutic agent of interest were incubated with the vascular smooth muscle cells for 5 minutes or 24 hours. […] Vials were counted on a Beckman LS2800 liquid scintillation counter interfaced with Beckman “Data Capture” software for conversion to a Lotus 1-2-3® file and analysis using Lotus 1-2-3®.
# 5 minute exposure: ^3H-thymidine uptake: Vascular smooth muscle cells were incubated in complete medium with 5% FBS (Gibco) overnight at 37° C. in a humidified, 5% CO2 environment in sterile 24 well plates. […] The cells were visually scored for viability and cell number. […] Vials were counted on a Beckman LS2800 liquid scintillation counter interfaced with Beckman “Data Capture” software for conversion to a Lotus 1-2-3® file and analysis using Lotus 1-2-3®.
compound,measurement,setting,value
Pseudomonas exotoxin [PE],metabolic activity measured in the MTT assay,[1],nonspecific cytotoxicity
CC(=O)O[C@@H]1/C=C\[C@@](C)(O)C(=O)[C@@H](C)C/C=C\[C@H]2[C@H](O)C(C)=C(C)[C@H]3C(Cc4ccccc4)NC(=O)[C@]132 (stereo partly shown) [cytochalasin C],minimum effective dose (MED),[2],0.01 µg/mL
CN[C@@H]1C[C@H]2O[C@@](C)([C@@H]1OC)n1c3ccccc3c3c4c(c5c6ccccc6n2c5c31)C(=O)NC4 [staurosporin],BRDU uptake (cell proliferation),[3],"inhibits target cell proliferation; also recorded: inhibited BRDU uptake (i.e., cell proliferation) without killing the vascular smooth muscle cells"
same,therapeutic range: 3H-leucine (protein synthesis) versus 3H-thymidine (DNA synthesis) inhibition,[4],exhibits a differential between ^3H-leucine and ^3H-thymidine uptake
